Measured values from patent US20030157516A1, “G protein coupled receptor” (priority 2000, published 2003).
Where “and” joins values, the source holds several entries; their conditions need not be identical. Equal entries are not always repeated. Where two headings read alike, the source gives them in different places.

Columns and labels:
[1] = molecular target: T1, adenine binding rat receptor (Rattus norvegicus, UniProt Q7TN49); assay: cAMP measurements on CHO cells transiently transfected (forskolin stimulated); assay type: cell-based; conditions: inhibition of forskolin stimulated cAMP
T1 construct: expressed in transfected cells; host or cells: CHO cells, transient, lipofectamine PLUS
T1 sequence (Q7TN49 1-304): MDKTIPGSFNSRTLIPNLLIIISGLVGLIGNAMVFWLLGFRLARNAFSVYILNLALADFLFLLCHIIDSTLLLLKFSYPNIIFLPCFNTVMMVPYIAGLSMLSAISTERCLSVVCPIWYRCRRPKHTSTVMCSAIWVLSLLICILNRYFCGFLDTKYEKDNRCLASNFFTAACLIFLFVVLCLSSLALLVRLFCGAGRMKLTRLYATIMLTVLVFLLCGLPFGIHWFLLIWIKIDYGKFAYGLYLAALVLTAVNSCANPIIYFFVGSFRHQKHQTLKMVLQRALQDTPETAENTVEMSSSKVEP
Method: a) Methods—For transiently transfected CHO cells, cAMP measurements were performed using the direct RIA kit from NEN (Belgium).
The cells were collected from 50 mm petri dishes by adding 1 ml 0.04% EDTA and re-suspending them in PBS (without Ca^2+ and Mg^2+). The cells were then centrifuged for 5 minutes at 1,500 RPM, the supernatant was removed and the pellet was re-suspended in stimulation buffer (provided by the supplier, NEN). The cells were counted and 50 μl was added to each well of a 96-well flashplate at a density of 10^6 cells/well. A standard curve of cAMP was prepared in stimulation buffer, covering a range from 10 to 1,000 nM, and 50 μl was added to the flashplate.
The compounds were diluted in PBS with forskolin (at 50 μM), and 50 μl of the ligand, 2 times the final concentration, was added to the cells and incubated for 20 minutes at 37° C. After the 20 minutes incubation, 100 μl of the [^125I]cAMP tracer (2 μCi) was added to each well, resulting in a final volume of 200 μl/well. The plate was left at room temperature, until being counted in the Topcount™ microplate scintillation counter (Packard, Netherlands). The sigmoid concentration response curves (duplicate points) were analyzed using the GraphPad Prism program (GraphPad Software, Calif., USA).
a) Methods: Two days before the experiment the cells were seeded out in a 96 well plate at a density required for approximately 90% confluence at the day of the experiment. After removal of the growth medium, the cells were washed twice with a controlled salt solution (CSS) containing 25 mM Tris-HCl, pH 7.4, 120 mM NaCl, 5.4 mM KCl, 0.8 mM MgCl2, 1.8 mM CaCl2, 15 mM glucose and 15 mg/l phenol red, with an addition of a phosphodiesterase inhibitor IBMX (3-isobutyl-1-methylxanthine) in a concentration of 1 mM and […]. Basal cAMP levels were determined in CSS containing these additives and maximally stimulated cAMP levels were determined in the presence of 50 μM forskolin. For testing agonistic activity, the compounds were incubated with the cells for 20 minutes at 37° C. The reaction was stopped by addition of ice cold HClO4 (1N) and stored at −20° C. After thawing the mixtures were neutralized with an equivalent amount of phosphate buffered KOH, left at 4° C. during 30 minutes to allow the salts to precipitate and centrifuged at 2,000 RPM for 5 minutes at 4° C.
For the quantitative determination of the cAMP levels, a 96-well Flashplate radioimmunoassay kit from NEN was used, according to the protocol of the supplier. The sigmoid concentration response curves (duplicate points) were analyzed using the GraphPad Prism program.

[2] = molecular target: T1, adenine binding rat receptor; assay: [3H]adenine competition binding on CHO membranes transiently transfected; conditions: transfected cells, 15 nM [3H]adenine
Method: The membranes were prepared as total particulate fractions. The cell lines were cultured to […] on 145 mm petri dishes and treated with 5 mM sodium butyrate, 24 hours before collection. The culturing medium was removed and the cells were washed twice with ice cold phosphate buffered saline (PBS without Ca^2+ and Mg^2+), scraped from the plates in 50 mM Tris-HCl buffer, pH 7.4, and collected by centrifugation (10 minutes at 16,000 RPM at 4° C.). The cell pellet was re-suspended in hypotonic 5 mM Tris-HCl buffer, pH 7.4, and homogenized with an Ultra Turrax homogenizer (Janker Kunkel, Germany). The homogenate was centrifuged at 18,000 RPM for 20 minutes at 4° C. The final pellet was re-suspended in 50 mM Tris-HCl buffer, pH 7.4 and stored in aliquots at −70° C. A protein determination was performed using the Bradford protein assay (Biorad, Germany) using bovine serum albumin (BSA) as standard.
A) Methods—[3H]Adenine binding experiments were performed to characterize wild type cell lines before transfection as well as transiently and permanently transfected cell lines. Membranes were thawed on ice and diluted in 50 mM HEPES buffer, pH 7.4 supplemented with 10 mM MgCl2 and 1 mM EGTA. […] Both assays were carried out in a final volume of 500 μl, using 18 μg of membrane protein for the transfected CHO cells and 30 μg of membrane protein for the wild type CHO cells for the saturation binding. For competition binding experiments, 15 and 50 μg of membrane protein was used for the transfected and wild type cells, respectively. The reaction was terminated by rapid filtration through Whatman GF/B filters using a Brandel multi-channel cell harvester (96 wells). The filters were washed three times with 3 ml ice cold 50 mM HEPES buffer, pH 7.4, transferred to liquid scintillation vials and 3 ml of scintillation fluid (Ultima Gold MV, Packard, Netherlands) was added. Samples were counted in a β-scintillation counter after at least 6 hours to permit the glass fiber filters to become uniformly translucent.

[3] = direct assay, 0.5% hiFCS, read-out: pEC50 (converted)
[4] = direct assay, 2% hiFCS, read-out: pEC50 (converted)
[5] = indirect assay, 0.5% hiFCS, read-out: pEC50 (converted)

EC50 [1, 3] [nM] | EC50 [1, 4] [nM] | EC50 [1, 5] [nM] | EC50 ([1]; indirect assay, 2% hiFCS, read-out: pEC50 (converted)) [nM] | EC50 ([1]; transiently transfected cells, read-out: EC50) [nM] | IC50 ([2]; mean of n experiments) [nM] | Ki ([2]; mean of n experiments) [nM] | IC50 ([2]; single experiments) | Ki ([2]; single experiments) | pIC50 ([2]; mean of n experiments) | pIC50 ([2]; single experiments) | pEC50 ([1]; indirect assay, 2% hiFCS) | SMILES
20.9 | 7.08 | 3.31 | 110 | ~15 | 28.2 | 18 | 17.4 nM and 36.3 nM and 30.9 nM and 33.1 nM | 11 nM and 22 nM and 19 nM and 20 nM | – | – | – | Nc1ncnc2nc[nH]c12 [Adenine, adenine]
– | – | – | – | – | – | 24500 | – | 31900 nM and 20800 nM and 21200 nM | 4.41 | 4.29 and 4.47 and 4.46 | – | Nc1ncnc2c1ncn2[C@@H]1O[C@H](COP(=O)(O)O)[C@@H](O)[C@H]1O [AMP]
4900 | 6310 | 7940 | – | – | 7080 | 4390 | 6170 nM and 9770 nM and 5750 nM | 3790 nM and 6060 nM and 3570 nM | – | – | no fit | Cn1cnc2ncnc-2c1N [1-Methyladenine]
